≈ marks a conversion by molar mass, not a printed value. Where “and” joins values, the source holds several entries; their conditions need not be identical. Equal values may be shown once. Read-outs that look alike come from different tables or passages of the source.
Assays:
N. gonorrhoeae = settings: QC strain ATCC 49926; cited from earlier work
E. coli = test system: E. coli; design: method as in PMID 28483959, PMID 31315953; settings: cited from earlier work
S. aureus = settings: organism not named in the sentence (context MRSA/S. aureus); cited from earlier work
[1] = Kinetic aqueous solubility; assay type: physicochemical
C. difficile BAA-1805 = assay: Hamster C. difficile colitis model; assay type: in vivo, Golden Syrian hamster
S. aureus VRSA, VRS-2 = assay: Neutropenic murine thigh infection model; assay type: in vivo, mouse (ICR); settings: 26 h after infection
[2] = Liver microsome stability, mouse; assay type: in vitro ADME; settings: male, CD-1, mouse, liver microsomes, pH 7.4
Protocol: Liver microsome stability assays were performed by BioDuro Inc. Human and mouse (CD-1 male) liver microsomes were used. […] Next, 50 μL of reaction buffer was added to solution and mixed via pipetting up and down 6 times. At each time point of 0, 30, and 60 min, an aliquot of 20 μL was removed from each tube. Liver microsomes (LM) working solution was prepared in 0.05 M phosphate reaction buffer (pH = 7.4) to a final concentration of 1.27 mg/mL. NADPH solution was prepared in 0.05 M phosphate buffer to afford a 5 mM buffer solution. […] After vortexing and incubating for 5 min (37°C), 50 μL of NADPH solution was added and mixed via pipetting. At each time point of 0, 5, 15, 30, and 60 min, an aliquot of 20 μL was removed from each tube. Next, 250 μL of quenching solution was aliquoted to quench the reaction, which was then vortexed for 1 min and placed on ice for 40 min. After centrifugation at 4,000 × g for 15 min, 100 μL of supernatant was transferred using a multichannel pipette to 0.65-mL tubes. Samples were diluted with MeOH: H2O (1:1) as necessary. Samples were analyzed by high-pressure liquid chromatography coupled to tandem mass spectrometry (LC/MS/MS) performed on a Sciex Applied Biosystems Qtrap 4000 triple-quadrupole mass spectrometer coupled to a Shimadzu HPLC system to quantify the remaining compound. Data were processed using Analyst software (version 1.4.2; Applied Biosystems Sciex). […] Metabolite identification on the microsomal extracts was performed using a Q-Exactive HRMS coupled with an Ultimate 3000 HPLC system and a Kinetix C18 2.1 × 50-mm 2.6-μm HPLC column.

[3] = test system: Neisseria gonorrhoeae strain H041; assay: Estradiol-treated mouse model of cervico-vaginal infection, strain H041; assay type: in vivo, mouse (BALB/c); settings: for percentage of mice colonized over 8 culture days after treatment: vs vehicle
[4] = test system: N. gonorrhoeae (ATCC 700825); assay: Intravaginal infection model, ovariectomized BALB/c mice, strain ATCC 700825; assay type: in vivo, mouse (BALB/c); settings: for killing effect relative to the baseline group: 26, 76 and 170 h after infection; for killing effect (bacterial counts in vaginal lavage): 26 h postinfection
[5] = Mouse pharmacokinetics of JSF-2659; assay type: in vivo; settings: oral administration in mice; data not shown
VISA = assay: MIC, in vitro susceptibility testing (CLSI); assay type: cell-based, Staphylococcus aureus
C. difficile = assay: MIC, toxigenic C. difficile panel (CLSI); assay type: cell-based, Clostridioides difficile; settings: for MIC: Clostridioides difficile
VRSA = settings: cited from earlier work
MRSA = assay: MIC, in vitro susceptibility testing (CLSI); assay type: cell-based, Staphylococcus aureus
MRSE = assay: MIC, in vitro susceptibility testing (CLSI); assay type: cell-based, Staphylococcus epidermidis

O=c1ccc2ncc(=O)n3c2n1C[C@H]3CN1CCC(NCc2cc3c(cn2)OCCC3)CC1 [Gepotidacin]
modal MIC (N. gonorrhoeae): 0.5 µg/mL
MIC (E. coli): 4 µg/mL (≈ 8.92 µM)
MIC90 (S. aureus): 0.5 µg/mL (≈ 1.11 µM)

CNc1cc(F)cc2c1[nH]c1nc(Oc3cnc(C)nc3)nc(N3CCC4(CC3)CO[C@@H](COP(=O)(O)O)C4)c12 [JSF-2659]
increase of solubility over the parent drug candidate ([1]; JSF-2659 vs JSF-2414): 764 fold
solubility kinetic ([1]; aqueous medium (not further specified)): 440 µM (≈ 252 µg/mL)
survival, 14-day observation (C. difficile BAA-1805; 20 mg/kg PO BID for 5 days): 100%
survival, 14-day observation (C. difficile BAA-1805; 100 mg/kg PO BID for 5 days): 100%
survival, 14-day observation (C. difficile BAA-1805; 250 mg/kg PO BID for 5 days): 100%
body weight change during the 14-day observation period (C. difficile BAA-1805; 20, 100 and 250 mg/kg PO BID, relative to the positive controls): No significant loss of body weight
bacterial count reduction in thigh relative to vehicle control (S. aureus VRSA, VRS-2; PO 100 mg/kg QD): 0.95 log10
bacterial count reduction in thigh relative to vehicle control (S. aureus VRSA, VRS-2; PO 100 mg/kg TID): 4.84 log10
bacterial count reduction in thigh relative to vehicle control (S. aureus VRSA, VRS-2; PO 250 mg/kg QD): 4.42 log10
bacterial count reduction in thigh relative to vehicle control (S. aureus VRSA, VRS-2; PO 250 mg/kg TID, 250 mg/kg): 6.26 log10 and > 6.2 log10
microsomal CLint at 1 μM ([2]; read-out: MLM Clint): 0.5 µL/min/mg
half-life at 1 μM ([2]; read-out: MLM t1/2): 23.1 h
percentage of mice colonized over 8 culture days after treatment ([3]; 75 mg/kg TID (q 6 h) PO): significant reduction in the percentage of mice colonized
percentage of mice colonized over 8 culture days after treatment ([3]; 250 mg/kg QD PO): significant reduction in the percentage of mice colonized
percentage of mice colonized over 8 culture days after treatment ([3]; 250 mg/kg TID (q 6 h) PO): significant reduction in the percentage of mice colonized
average CFU/mL recovered after 48 h of treatment ([3]; 250 mg/kg TID PO, vs vehicle (P = 0.058)): significantly reduced compared to the vehicle control
average CFU per mL of vaginal swab suspension over time ([3]; 250 mg/kg TID PO, P = 0.004): significantly different than the vehicle control group
killing effect relative to the baseline group ([4]; IM 75 mg/kg QD): > 3 log10
killing effect relative to the baseline group ([4]; IM 250 mg/kg QD): > 3 log10
killing effect relative to the baseline group ([4]; PO 75 mg/kg TID): > 3 log10
killing effect relative to the baseline group ([4]; PO 250 mg/kg QD): > 3 log10
killing effect relative to the baseline group ([4]; PO 250 mg/kg TID): > 3 log10
killing effect (bacterial counts in vaginal lavage) ([4]; IM 75 mg/kg QD, relative to control): 3.51 log10
killing effect (bacterial counts in vaginal lavage) ([4]; IM 250 mg/kg QD, relative to control): 3.39 log10
killing effect (bacterial counts in vaginal lavage) ([4]; PO 75 mg/kg QD, relative to baseline group): 1 log10
killing effect (bacterial counts in vaginal lavage) ([4]; PO 75 mg/kg TID, relative to control): 3.51 log10
killing effect (bacterial counts in vaginal lavage) ([4]; PO 250 mg/kg QD, relative to control): 3.51 log10
killing effect (bacterial counts in vaginal lavage) ([4]; PO 250 mg/kg TID, relative to control): 3.51 log10
reduction of burden to the limit of detection ([4]; dose-dependent oral administration): ~ 4.5 log10
conversion by host phosphatases to JSF-2414 [5]: > 99%

CN[C@H](CC(C)C)C(=O)N[C@H]1C(=O)N[C@@H](CC(N)=O)C(=O)N[C@H]2C(=O)N[C@H]3C(=O)N[C@H](C(=O)N[C@H](C(=O)O)c4cc(O)cc(O)c4-c4cc3ccc4O)[C@H](O)c3ccc(c(Cl)c3)Oc3cc2cc(c3O[C@@H]2O[C@H](CO)[C@@H](O)[C@H](O)[C@H]2O[C@H]2C[C@](C)(N)[C@H](O)[C@H](C)O2)Oc2ccc(cc2Cl)[C@H]1O [Van, vancomycin]
MIC range (VISA): 3.125 to 12.5 µg/mL
survival (C. difficile BAA-1805; 20 mg/kg PO BID for 5 days): 100%
bacterial count reduction in thigh (S. aureus VRSA, VRS-2; SC 100 mg/kg TID): 2.09 log10
MIC range (C. difficile): 0.5 to 1 µg/mL
MIC (C. difficile): 1 µg/mL (≈ 0.69 µM)
MIC (C. difficile; BAA1805): 0.5 µg/mL (≈ 0.345 µM)
MIC (C. difficile; BAA1808): 0.5 µg/mL (≈ 0.345 µM)
MIC (C. difficile; BAA1874): 0.5 µg/mL (≈ 0.345 µM)
MIC (C. difficile; BAA1875): 0.5 µg/mL (≈ 0.345 µM)
MIC (VRSA): > 64 µg/mL
MIC (MRSA): 1.0 µg/mL (≈ 0.69 µM)
MIC range (MRSA): 0.5 to 1 µg/mL
MIC (MRSA; Staphylococcus aureus, MRSA): 0.5 µg/mL (≈ 0.345 µM)
MIC range (MRSE): 0.5 to 1 µg/mL
MIC (MRSE; Staphylococcus epidermidis, MRSE): 0.5 µg/mL (≈ 0.345 µM)
